Results as given in patent US20020002294A1, “Estrogenic compounds as antiangiogenic agents” (priority 1997, published 2002).

Legend:
[1] = tested on: MDA-MB-435 estrogen receptor-negative human breast carcinoma cells; assay: In Vivo Tumor Growth Inhibition; set-up: species or system SCID mice
Procedure: To determine the antitumor activity of 2-ME and derivatives, SCID mice were s.c. inoculated with 10^6 MDA-MB-435 estrogen receptor-negative human breast carcinoma cells. Treatment was initiated on day 12 when tumor volumes reached 75-100 mm3 in volume. Drugs were suspended in 0.5 g/100 ml of carboxymethylcellulose with sterile glass beads, vortexed for 5 minutes, and administered p.o. in a volume of 0.1 ml. Control mice received 0.1 ml of carboxymethylcellulose p.o. Serial caliper measurements of perpendicular diameters were used to calculate tumor volume using the following: (shortest diameter)^2×(longest diameter)×0.52. T/C was calculated as the volume of treated tumors over the volume of control tumors. A smaller number indicates a greater inhibition of tumor growth.

[2] = tested on: Ovarian cell lines (especially OVCAR-3); assay: Human Tumor Cell Panel Assay in vitro, ovarian panel; format: cell-based; set-up: key: Most sensitive cell panes are marked with ✓
Description: (§1) The tubulin activities, breast cancer cell line activities, and the cell panels most sensitive to selected analogs are shown in Tables 3 and 4.

[3] = target: T1, rat uterine cytosolic estrogen receptor (Rattus norvegicus, UniProt P06211); assay: Relative Binding Affinity to estrogen receptor; conditions: at 0°; 3H-Estradiol=100
T1 construct: from tissue; host or cells: rat uterine cytosol (per the result head)
T1 sequence (P06211 1-600): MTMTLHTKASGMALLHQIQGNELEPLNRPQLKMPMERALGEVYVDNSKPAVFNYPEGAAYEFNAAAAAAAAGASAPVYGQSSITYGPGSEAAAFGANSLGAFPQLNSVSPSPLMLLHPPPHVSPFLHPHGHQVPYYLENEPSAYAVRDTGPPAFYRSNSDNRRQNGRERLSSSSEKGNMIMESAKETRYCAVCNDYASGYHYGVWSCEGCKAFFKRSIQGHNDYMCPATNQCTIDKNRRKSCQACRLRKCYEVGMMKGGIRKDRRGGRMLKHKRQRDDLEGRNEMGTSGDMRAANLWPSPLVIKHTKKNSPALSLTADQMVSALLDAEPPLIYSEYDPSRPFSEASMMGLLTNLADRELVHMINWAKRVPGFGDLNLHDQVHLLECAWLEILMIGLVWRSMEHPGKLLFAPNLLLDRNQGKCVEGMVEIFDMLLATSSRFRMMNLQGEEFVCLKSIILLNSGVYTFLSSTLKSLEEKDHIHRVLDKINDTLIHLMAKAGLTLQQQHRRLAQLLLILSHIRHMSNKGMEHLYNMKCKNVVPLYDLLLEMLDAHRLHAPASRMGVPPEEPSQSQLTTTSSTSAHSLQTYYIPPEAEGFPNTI
Description: as §1

[4] = tested on: 8 human breast cancer cell lines; assay: human tumor cell panel assay in vitro, breast panel; format: cell-based; set-up: key to Most Sensitive Cell Lines in Human Tumor Cell Panel Assay: Breast: Most sensitive cell panes are marked with ✓; conditions: for Most Sensitive Cell Lines in Human Tumor Cell Panel Assay: Breast: 8 cell lines, only MCF-7 and T-47D express estrogen and progesterone receptors
Description: as §1

CNS cell lines = assay: Human Tumor Cell Panel Assay in vitro, CNS panel; format: cell-based; set-up: key: Most sensitive cell panes are marked with ✓
Description: as §1

Renal cell lines = assay: Human Tumor Cell Panel Assay in vitro, renal panel; format: cell-based; set-up: key: Most sensitive cell panes are marked with ✓
Description: as §1

Melanoma cell lines = assay: Human Tumor Cell Panel Assay in vitro, melanoma panel; format: cell-based; set-up: key: Most sensitive cell panes are marked with ✓
Description: as §1

tubulin [5] = assay: tubulin activities of 2-ME analogs (Table 3); format: biochemical
tubulin [6] = assay: inhibition of [3H]colchicine binding to tubulin; conditions: 100 μM inhibitor, 1.0 μM tubulin, 2 μM [3H]colchicine, 10 min at 37° C.; ± S.D.
Procedure: Incubation was for 10 min. at 37° C.
Incubation was for 10 mi. at 37° C. Average values obtained in three independent experiments are presented in the table, except for 2-methoxyestrone, which was only examined twice. S.D., standard deviation.

tubulin [7] = assay: inhibition of tubulin polymerization in vitro (turbidity at 350 nm); format: biochemical; conditions: read-out: IC50 (concentration required to inhibit tubulin polymerization by 50%); mean ± S.D.; method of Example 1
Procedure: Anti-mitotic activity can be evaluated by testing the ability of an estradiol derivative to inhibit tubulin polymerization and microtubule assembly in vitro. Microtubule assembly is followed in a Gilford recording spectrophotometer (model 250 or 2400S) equipped with electronic temperature controllers. A reaction mixture (all concentrations refer to a final reaction volume of […]) contains 1.0 M monosodium glutamate (ph 6.6), 1. omg/ml (10 μM) tubulin, 1.0 mM MgCl2, 4% (v/v) dimethylsulfoxide and 20-75μM of a composition to be tested. The 0.24 ml reaction mixtures are incubated for 15 min. at 37° C. and then chilled on ice. After addition of 10p1 2.5mM GTP, the reaction mixture is transferred to a cuvette at 0° C., and a baseline established. At time zero, the temperature controller of the spectrophotometer is set at 37° C. Microtubule assembly is evaluated by increased turbity at 350 nm.
A. Each reaction mixture (all concentrations refer to the final reaction volume of 0.25 ml) contained 1.0 M monosodium glutamate (pH 6.6), 1.0 mg/ml (10 μM) tubulin, 1.0 mM MgCl2, 4% (v/v) dimethylsulfoxide, and either 0 (curve 1), 20μM (curve 2), 40 μM (curve 3), or 75 μM (curve 4) 2-methoxyestradiol. The 0.24 ml reaction mixtures were incubated for 15 min. at 37° C and chilled on ice. After addition of 10 μl of 2.5 mM GTP the reaction mixtures were transferred to cuvettes held at 0° C., and baselines were established. At time zero the temperature controller was set at 37° C. At the times indicated by the vertical dashed lines the temperature controller was set at the indicated temperatures.
B. Each reaction mixture contained 0.8 M monosodium glutamate (pH 6.6), 1.2 mg/ml (12 μM) tubulin, 4% (v/v) dimethylsulfoxide, and either 0 (curve 1), 1.0 FM (curve 2), 2.0 ,M (curve 3), 3.0 μM (curve 4), or 4.0 μM (curve 5) 2-methoxyestradiol. The 0.24 ml reaction mixtures were incubated for 15 min. at 26° C. and chilled on ice. After addition of 10μl of 10 mM GTP the reaction mixtures were transferred to cuvettes held at 0° C., and baselines were established. At time zero the temperature controller was set at 26° C. At the time indicated by vertical dashed line the temperature controller was set at 0° C.
The method is given in Example 1.
S.D., standard deviation.

[8] = tested on: corneal neovascularization; assay: Mouse Corneal Micropocket Assay; format: in vivo, mice; conditions: 150 mg/kg, daily oral, 5 days
Procedure: Five- to 7-week-old SCID female mice were obtained from Massachusetts General Hospital (Boston, Mass.), Immunocompetent 7-9-week-old female C57BL/6 mice were obtained from ARCH Technical Services, Children's Hospital (Boston, Mass.). All animal studies were conducted according to protocols approved by the Animal Ethics Committee of Children's Hospital. Animals were anesthetized in a methoxyflurane (Pittman-Moore, Mundelein, Ill.) chamber prior to all procedures and were observed until fully recovered. Animals were sacrificed by a lethal dose of methoxyflurane.
Mouse Corneal Micropocket Assay To study the effect of microtubule inhibitors on angiogenesis in vivo, a model of angiogenesis in the mouse cornea was used in […] mice as described previously (Kenyon, B. B., Voest, E. E., Chen, C. C., Folkman, J., and D'Amato, R. J. A model of angiogenesis in the mouse cornea. Invest. Ophthalmol. & Visual Sci., 76: 1625-1632, 1996). In brief, after animals were anesthetized, corneal micropockets were created in both eyes with a modified von Graefe cataract knife. Into each pocket, a 0.4 mm ×0.4 mm×0.2 mm sucrose aluminum sulfate (Bukh Meditee, Copenhagen, Denmark) pellet coated with hydron polymer type NCC (IHN Sciences, New Brunswick, N.J.) containing 80 ng of bFGF or 160 ng of human recombinant […] (gift from Reprogenesis, Cambridge, Mass.) was implanted 1.0-1.2 mm from the limbal vessels (bFGF experiments) or 0.5-0.7 mm from the limbus (VEGF experiments). Erythromycin ointment (E. Fougera, Melville, N.Y.) was applied to each operated eye. The sucralfate acts to stabilize the growth factor and to slow its release from the hydron. Before testing each drug in this assay, we found the maximal dose that could be administered daily for 5 consecutive days without producing signs of toxicity (i.e., no hair loss, diarrhea, infection, lethargy, or weight loss). The treated groups received daily oral administration for 5 consecutive days of the stated dosage of 2-ME or a derivative thereof suspended in 0.5 g/100 ml of carboxymethylcellulose.
Treatment was started on the day of pellet implantation. […] For this purpose, the eyes of the mice were examined by slit-lamp biomicroscopy. Area of corneal neovascularization was calculated using a modified formula for a half-ellipse: Area (mm^2)=[π×clock hours×length (mm)×0.2 mm]. This formula provides the most accurate approximation of the area of neovascularization that grows toward the pellet. (Kenyon, B. B., Voest, E. E., Chen, C. C., Folkman, J., and D'Amato, R. J. A model of angiogenesis in the mouse cornea. Invest. Ophthalmol. & Visual Sci., 76: 1625-1632, 1996).

Compound	Most Sensitive Cell Lines in Human Tumor Cell Panel Assay: Ovarian [2]	RBA, Relative Binding Affinity to rat uterine cytosolic estrogen receptor [3]	Most Sensitive Cell Lines in Human Tumor Cell Panel Assay: Breast [4]	Most Sensitive Cell Lines in Human Tumor Cell Panel Assay: CNS (CNS cell lines)	Most Sensitive Cell Lines in Human Tumor Cell Panel Assay: Renal (Renal cell lines)	Most Sensitive Cell Lines in Human Tumor Cell Panel Assay: Melanoma (Melanoma cell lines)	IC50 (tubulin [5])	Percentage Inhibition of colchicine binding to tubulin (tubulin [6])	IC50 (tubulin [7])	inhibition in corneal pocket assay [8]	other results
CCOc1cc2c(cc1O)C(=NO)CC1C2CCC2(C)C(O)CCC12 (stereo not shown) [NSC 680185]	✓	<0.001	✓	✓	✓	✓					T/C (volume of treated tumors over volume of control tumors) ([1]; 150 mg/kg p.o., duration not stated): 0.9
CCNc1cc2c(cc1O)CCC1C2CCC2(C)C(O)CCC12 (stereo not shown) [NSC 673652]		0.35					~2000 nM				IC50 ([4]; Homo sapiens, cell panel assay in vitro, two values per cell separated by /, read-out: Tumor Panel: Average log IC50(Molar) against 8 human breast cancer cell lines (converted)): 2000 nM; Tumor Panel: Average log IC50(Molar) against 8 human breast cancer cell lines ([4]; cell panel assay in vitro, two values per cell separated by /): −5.7/−5.7 log Molar
C#CC1(O)CCC2C3CCc4cc(O)ccc4C3CCC21C (stereo not shown) [17-Ethynylestradiol, reference compound]								50 ± 7%	10000 ± 2000 nM		
CCOc1cc2c(cc1O)C(=NOC)CC1C2CCC2(C)C(O)CCC12 (stereo not shown) [NSC 683125]		<0.001	✓		✓	✓				23%	
COc1cc2c(cc1O)CCC1C2CCC2(C)C(=O)CCC12 (stereo not shown) [2-Methoxyestrone, reference compound]								57 ± 6%	8800 ± 1000 nM		
C[C@]12CC[C@@H]3c4cc(OCC(F)(F)F)c(O)cc4/C(=N/O)C[C@H]3[C@@H]1CC[C@@H]2O [NSC 681683]	✓	<0.0074	✓	✓		✓	500 nM			22%	tumor growth inhibition, comparison in words (FIG. 4) ([1]; FIG. 4): performed approximately as well as the derivative 681684
